# Where two headings read alike, the source gives them in different places. Marks after values point to notes of the source that are not given here.
# Columns and labels:
# Sa(H30N) strain [1] = system: Sa(H30N) strain
# E. coli NR698 = format: cell-based, Escherichia coli
# [2] = system: S. aureus ATCC strain 43300; assay: microbe, parasite or virus in culture; format: cell-based, Staphylococcus aureus; conditions: for MIC Sa43300: Table 12, wild-type strain
# E. coli (ATCC 25922) = assay: E. coli MIC, microdilution broth assay; format: cell-based, Escherichia coli
# Description: Minimum inhibitory concentrations were determined using E. coli (ATCC 25922) and the microdilution broth assay with an inoculum of […] CFU/mL in Isosensitest Broth (Oxoid).
# MtbDHFR = MtbDHFR (Mycobacterium tuberculosis (strain ATCC 25618 / H37Rv), UniProt P9WNX1); assay: M. tuberculosis DHFR enzyme inhibition; format: biochemical
# Mtb = assay: M. tuberculosis MIC, microtiter broth dilution (Table 6); format: cell-based, Mycobacterium tuberculosis; conditions: for MIC: Mycobacterium tuberculosis
# Description: (§1) (provided by Leonid Heifets).
# (§2) Each isolate was tested in duplicate.
# S. aureus (Sa) DHFR = S. aureus (Sa) DHFR (Staphylococcus aureus, UniProt P0A017); format: biochemical; conditions: Table 2
# E. coli (Ec) DHFR = E. coli (Ec) DHFR (Escherichia coli (strain K12), UniProt P0ABQ4); assay: E. coli DHFR enzyme inhibition (NADPH oxidation, 340 nm); format: biochemical
# Mtb 56 = format: cell-based, Mycobacterium tuberculosis; conditions: MDR strain
# Mtb 352 = format: cell-based, Mycobacterium tuberculosis; conditions: MDR strain
# Mtb 276 = format: cell-based, Mycobacterium tuberculosis; conditions: MDR strain
# Mtb 5 = format: cell-based, Mycobacterium tuberculosis; conditions: XDR strain
# Mtb Erdman = Mtb Erdman MIC, microtiter broth dilution; format: cell-based, Mycobacterium tuberculosis
# Description: as §1, §2
# Mtb 365 = format: cell-based, Mycobacterium tuberculosis; conditions: MDR strain
# Mtb C-31 = format: cell-based, Mycobacterium tuberculosis; conditions: MDR strain
# Sa(H30N) strain [3] = assay: microbe, parasite or virus in culture; conditions: Staphylococcus aureus, read-out: MIC Sa(H30N)
# [4] = system: wild-type Gram-negative E. coli; conditions: background; cited from earlier work
# [5] = system: methicillin-resistant S. aureus (MRSA); conditions: background; cited from earlier work
compound,measurement,setting,value
CCc1nc(N)nc(N)c1C#C[C@H](C)c1cc(OC)cc(-c2ccc(C(=O)O)cc2)c1 [Compound 31],MIC Sa(H30N),Sa(H30N) strain [1],0.0781 µg/mL
same,MIC E. coli NR698,E. coli NR698; Table 2,0.0024 µg/mL
same,MIC S. aureus 43300,[2],0.0098 µg/mL
same,MIC Sa43300,[2],0.0098 µg/mL
same,MIC E. coli 25922,"E. coli (ATCC 25922); Table 2, wild-type E. coli",10 µg/mL
CCc1nc(N)nc(N)c1C#CCc1cc(-c2ccccc2C(=O)O)ccc1OC [Compound 14],IC50,MtbDHFR,311 nM
same,MIC Mtb,Mtb,1 µg/mL
same,IC50,S. aureus (Sa) DHFR,157 nM
same,IC50,E. coli (Ec) DHFR; Table 2,526 nM
same,MIC E. coli NR698,E. coli NR698; Table 2,0.0391 µg/mL
same,MIC S. aureus 43300,[2],0.625 µg/mL
same,MIC E. coli 25922,"E. coli (ATCC 25922); Table 2, wild-type E. coli",>20 µg/mL
CCc1nc(N)nc(N)c1C#C[C@H](C)c1cc2c(c(-c3ccncc3)c1)OCO2 [Compound 55],MIC Mtb56,Mtb 56,8 µg/mL
same,IC50,MtbDHFR,206 nM
same,MIC Mtb,Mtb,4 µg/mL
same,MIC Mtb 352,Mtb 352,8 µg/mL
same,MIC Mtb 276,Mtb 276,8 µg/mL
same,MIC Mtb 5,Mtb 5,8 µg/mL
same,MIC Mtb Erdman,Mtb Erdman,8 µg/mL
same,MIC Mtb 365,Mtb 365,4 µg/mL
same,MIC Mtb C-31,Mtb C-31,16 µg/mL
CCc1nc(N)nc(N)c1C#CCc1cc(-c2cncn2C)ccc1OC [Compound 56],MIC Mtb56,Mtb 56,4 µg/mL
same,IC50,MtbDHFR,126 nM
same,MIC Mtb,Mtb,2 µg/mL
same,MIC Mtb 352,Mtb 352,4 µg/mL
same,MIC Mtb 276,Mtb 276,4 µg/mL
same,MIC Mtb 5,Mtb 5,4 µg/mL
same,MIC Mtb Erdman,Mtb Erdman,4 µg/mL
same,MIC Mtb 365,Mtb 365,4 µg/mL
same,MIC Mtb C-31,Mtb C-31,8 µg/mL
"CCc1nc(N)nc(N)c1C#C[C@@H](C)c1cc(-c2ccncc2)ccc1OC [E, reference compound]",MIC Sa(H30N),Sa(H30N) strain [1],0.625 µg/mL
same,MIC Sa43300,[2],0.0195 µg/mL
"CCc1nc(N)nc(N)c1C#CC(C)c1cc2c(c(-c3ccncc3)c1)OCO2 (stereo not shown) [Compound B, reference compound]",MIC Sa(H30N),Sa(H30N) strain [1],5 µg/mL
same,MIC Sa43300,[2],0.0781 µg/mL
CCc1nc(N)nc(N)c1C#CCc1cc2c(c(-c3cc(F)c(O)c(F)c3)c1)OCO2 [Compound 39],IC50,E. coli (Ec) DHFR; Table 3,625 nM
same,MIC E. coli NR698,E. coli NR698; Table 3,0.001 µg/mL
same,MIC E. coli 25922,E. coli (ATCC 25922); Table 3,0.625 µg/mL
CCc1nc(N)nc(N)c1C#C[C@@H](C)c1cc(-c2ccc(C(=O)O)cc2)ccc1OC [Compound 30],MIC E. coli NR698,E. coli NR698; Table 2,0.0012 µg/mL
same,MIC S. aureus 43300,[2],0.0195 µg/mL
same,MIC E. coli 25922,"E. coli (ATCC 25922); Table 2, wild-type E. coli",20 µg/mL
"NNC(=O)c1ccncc1 [INH, Isoniazid, reference compound]",MIC,Mtb,0.03 µg/mL
same,MIC,"Mtb Erdman; Mycobacterium tuberculosis, ERDMAN",0.125 µg/mL
CCc1nc(N)nc(N)c1C#CCc1cc2c(c(-c3ccc(O)c(F)c3)c1)OCO2 [Compound 38],IC50,E. coli (Ec) DHFR; Table 3,1250 nM
same,MIC E. coli NR698,E. coli NR698; Table 3,0.001 µg/mL
same,MIC E. coli 25922,E. coli (ATCC 25922); Table 3,0.625 µg/mL
CCc1nc(N)nc(N)c1C#C[C@@H](C)c1cc(-c2ccc(C(=O)OC)cc2)ccc1OC [Compound 34],IC50,S. aureus (Sa) DHFR,205 nM
same,IC50,E. coli (Ec) DHFR; Table 2,172 nM
same,MIC E. coli NR698,E. coli NR698; Table 2,1.875 µg/mL
same,MIC S. aureus 43300,[2]; Table 2,10 µg/mL
same,MIC E. coli 25922,"E. coli (ATCC 25922); Table 2, wild-type E. coli",>20* μg/mL
CCc1nc(N)nc(N)c1C#C[C@@H](C)c1cc(OC)cc(-c2ccc(C(=O)O)cc2)c1 [Compound 32],MIC Sa(H30N),Sa(H30N) strain [1],0.0781 µg/mL
same,MIC E. coli NR698,E. coli NR698; Table 2,0.0024 µg/mL
same,MIC S. aureus 43300,[2],0.0098 µg/mL
same,MIC Sa43300,[2],0.0098 µg/mL
same,MIC E. coli 25922,"E. coli (ATCC 25922); Table 2, wild-type E. coli",10 µg/mL
CCc1nc(N)nc(N)c1C#C[C@H](C)c1cc(-c2ccc(C(=O)OC)cc2)ccc1OC [Compound 33],IC50,S. aureus (Sa) DHFR,22 nM
same,IC50,E. coli (Ec) DHFR; Table 2,34 nM
same,MIC E. coli NR698,E. coli NR698; Table 2,0.156 µg/mL
same,MIC S. aureus 43300,[2]; Table 2,0.625 µg/mL
same,MIC E. coli 25922,"E. coli (ATCC 25922); Table 2, wild-type E. coli",>20* μg/mL
CCc1nc(N)nc(N)c1C#CC(C)c1cc2c(c(-c3cncn3C)c1)OCO2 (stereo not shown) [Compound 54],MIC Mtb56,Mtb 56,8 µg/mL
same,MIC Mtb,Mtb,2 µg/mL
same,MIC Mtb 352,Mtb 352,4 µg/mL
same,MIC Mtb 276,Mtb 276,4 µg/mL
same,MIC Mtb 5,Mtb 5,8 µg/mL
same,MIC Mtb Erdman,Mtb Erdman,4 µg/mL
same,MIC Mtb 365,Mtb 365,8 µg/mL
same,MIC Mtb C-31,Mtb C-31,8 µg/mL
CCc1nc(N)nc(N)c1C#CCc1cc2c(c(-c3cc(F)c(OC)c(F)c3)c1)OCO2 [Compound 40],IC50,E. coli (Ec) DHFR; Table 3,> 20000 nM
same,MIC E. coli NR698,E. coli NR698; Table 3,0.78 µg/mL
same,MIC E. coli 25922,E. coli (ATCC 25922); Table 3,5 µg/mL
CCc1nc(N)nc(N)c1C#C[C@@H](C)c1cc(-c2ccncc2)ccc1OC [Compound 57],IC50,MtbDHFR,73 nM
same,MIC Mtb,Mtb,2 µg/mL
CCc1nc(N)nc(N)c1C#CCc1cc(-c2ccccc2C(=O)O)ccc1OC [Compound 13],IC50,S. aureus (Sa) DHFR,359 nM
same,IC50,E. coli (Ec) DHFR; Table 2,195 nM
same,MIC E. coli NR698,E. coli NR698; Table 2,20 µg/mL
same,MIC S. aureus 43300,[2],>20 µg/mL
same,MIC E. coli 25922,"E. coli (ATCC 25922); Table 2, wild-type E. coli",>32 µg/mL
CCc1nc(N)nc(N)c1C#CCc1cc(OC)c(OC)c(-c2ccncc2)c1 [Compound 60],MIC Sa(H30N),Sa(H30N) strain [1],0.625 µg/mL
same,MIC Sa43300,[2],0.0195 µg/mL
CCc1nc(N)nc(N)c1C#CCc1cc2c(c(-c3ccc(O)cc3)c1)OCO2 [Compound 37],IC50,E. coli (Ec) DHFR; Table 3,2500 nM
same,MIC E. coli NR698,E. coli NR698; Table 3,0.002 µg/mL
same,MIC E. coli 25922,E. coli (ATCC 25922); Table 3,0.625 µg/mL
CCc1nc(N)nc(N)c1C#CCc1ccc(OC)c(-c2ccc(C(=O)O)cc2)c1 [Compound 59],MIC Mtb56,Mtb 56,0.5 µg/mL
same,IC50,MtbDHFR,460 nM
same,MIC Mtb,Mtb,0.5 µg/mL
same,MIC Mtb 352,Mtb 352,0.5 µg/mL
same,MIC Mtb 5,Mtb 5,2 µg/mL
same,MIC Mtb Erdman,Mtb Erdman,0.5 µg/mL
same,MIC Mtb 365,Mtb 365,0.125 µg/mL
same,MIC Mtb C-31,Mtb C-31,8 µg/mL
"CCc1nc(N)nc(N)c1C#CC(C)c1cc(-c2ccncc2)ccc1OC (racemic) [C, reference compound]",MIC Sa(H30N),Sa(H30N) strain [1],2.5 µg/mL
same,MIC Sa43300,[2],0.625 µg/mL
"CCc1nc(N)nc(N)c1C#CC(C)c1cc2c(c(-c3ccncc3)c1)OCO2 (stereo not shown) [F, reference compound]",MIC Sa(H30N),Sa(H30N) strain [1],2.5 µg/mL
same,MIC Sa43300,[2],0.0195 µg/mL
CCc1nc(N)nc(N)c1C#CCc1cc(OC)cc(-c2ccc(C(=O)O)cc2)c1 [Compound 16],MIC Sa(H30N),Sa(H30N) strain [1],0.1563 µg/mL
same,IC50,E. coli (Ec) DHFR; Table 2,507 nM
same,MIC E. coli NR698,E. coli NR698; Table 2,0.0049 µg/mL
same,MIC S. aureus 43300,[2],0.0195 µg/mL
same,MIC Sa43300,[2],0.0195 µg/mL
same,MIC E. coli 25922,"E. coli (ATCC 25922); Table 2, wild-type E. coli",>20 µg/mL
"CCc1nc(N)nc(N)c1C#CC(C)c1cc(OC)cc(-c2ccncc2)c1 (stereo not shown) [Compound D, reference compound]",MIC Sa(H30N),Sa(H30N) strain [1],0.625 µg/mL
same,MIC Sa43300,[2],0.0391 µg/mL
"COc1cc(Cc2cnc(N)nc2N)cc(OC)c1OC [TMP, trimethoprim]",MIC,Mtb,256 µg/mL
same,MIC,Sa(H30N) strain [3],2.5 µg/mL
same,MIC E. coli,[4],0.3125 µg/mL
same,MIC,"[2]; Staphylococcus aureus, ATCC43300, read-out: MIC Sa43300",0.312 µg/mL
same,MIC MRSA,[5],0.3125 µg/mL
CCc1nc(N)nc(N)c1C#CC(C)c1cc(OC)cc(-c2ccc(C(=O)O)cc2)c1 (stereo not shown) [Compound 58],MIC Mtb56,Mtb 56,0.06 µg/mL
same,MIC Mtb,Mtb,<0.03 µg/mL
same,MIC Mtb 352,Mtb 352,0.06 µg/mL
same,MIC Mtb 5,Mtb 5,0.25 µg/mL
same,MIC Mtb Erdman,Mtb Erdman,<0.03 µg/mL
same,MIC Mtb 365,Mtb 365,<0.03 µg/mL
same,MIC Mtb C-31,Mtb C-31,8 µg/mL

# From patent US10870625B2, “Zwitterionic propargyl-linked antifolates useful for treating bacterial infections” (THE UNIVERSITY OF CONNECTICUT, priority 2016, dated 2020)
